Laboratory results reported in PubChem BioAssay (NCI).
Where “and” joins values, the source holds several entries; their conditions need not be identical. Equal values may be shown once.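 Assay format: 96-well plates, 48-hour exposure. GI50 marks 50% less growth. At the TGI there is no net growth.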

What was measured:
Test in all cases: NCI tumour cell line growth inhibition, 48 h
[1] = system: HOP-92 NSCLC
[2] = system: OVCAR-4 ovarian
[3] = system: EKVX NSCLC
[4] = system: OVCAR-3 ovarian
[5] = system: SK-MEL-2 melanoma
[6] = system: HCT-15 colon
[7] = system: SR leukemia
[8] = system: MDA-MB-231 breast
[9] = system: KM12 colon
[10] = system: UO-31 renal

Compound | TGI [1] | GI50 [2] | TGI [2] | GI50 [3] | TGI [3] | GI50 [4] | GI50 [5] | TGI [5] | GI50 [6] | TGI [6] | GI50 [7] | TGI [7] | GI50 [8] | TGI [8] | GI50 [9] | TGI [9] | GI50 [10] | TGI [10] | GI50 [1] | TGI [4]
C#CC#CC#CC#CC#CC#CC#CC#CCC1OCC(COC(=O)O[C@@H](C(=O)O[C@H]2C[C@@]3(O)[C@@H](OC(=O)c4ccccc4)[C@@H]4[C@]5(OC(C)=O)CO[C@@H]5C[C@H](O)[C@@]4(C)C(=O)[C@H](OC(C)=O)C(=C2C)C3(C)C)[C@@H](NC(=O)c2ccccc2)c2ccccc2)O1 (some centres undefined) | > 33.3 µM | > 33.3 µM | > 33.3 µM | > 26.3 µM | > 33.3 µM | 0.0971 µM | 0.603 µM | > 33.3 µM | > 9.51 µM | > 33.3 µM | 0.0991 µM | > 33.3 µM | 0.447 µM | > 33.3 µM | 0.0986 µM | > 33.3 µM | > 33.3 µM | > 33.3 µM |  | 
COc1ccc(CCN2CC=Cn3c2nc2ccccc2c3=O)cc1 | 29.5 µM | 0.0637 µM | > 96 µM | 0.185 µM | > 100 µM | 0.0214 µM | 0.0334 µM | 32.9 µM | 0.0185 µM | > 45.7 µM | 0.0354 µM | > 100 µM | 0.0558 µM | > 100 µM | 0.0167 µM | > 100 µM | 0.0683 µM | > 100 µM | 0.127 µM | 0.0605 µM
O=C(Nc1ccc(Br)cc1F)c1cc(I)ccc1O | 4.8 µM | 3.16 µM | > 100 µM | 2.25 µM | 28.6 µM | 3.06 µM | 2 µM | 5.71 µM | 2.94 µM | 12.7 µM | 2.71 µM | > 100 µM | 1.77 µM | 6.28 µM | 2.98 µM | 9.14 µM | 1.52 µM | 7.51 µM | 1.08 µM | > 100 µM
CC1=C(c2cccc(O)c2)[C@H](c2ccc(OCCN3CC(CF)C3)cc2)Oc2ccc(O)cc21 | 13.8 µM | 9.62 µM | 21.7 µM | 9.61 µM | 21.7 µM | 10.8 µM | 7.2 µM | 20.9 µM | 6.09 µM | 19.6 µM | 3.76 µM | 36.2 µM | 4.87 µM | 17.4 µM | 6.44 µM | 21.7 µM | 3.56 µM | 16 µM | 2.52 µM | 24.4 µM
Cc1cc2c(C(C)C)c(O)c(O)cc2c(O)c1-c1c(C)cc2c(C(C)C)c(O)c(O)cc2c1O | 17.4 µM | 14 µM | 33.8 µM | 20.8 µM | 68.6 µM | 14.4 µM | 17.7 µM | 33.9 µM | 5.31 µM | 20.9 µM | 8.24 µM | 28.4 µM | 13.5 µM | 34.8 µM | 11.6 µM | 27.2 µM | 14.9 µM | 29.1 µM | 3.13 µM | 29.8 µM
Cc1cc(NCCCN(C)C)c2ccc3c(ccc4c(NCCCN(C)C)cc(C)nc43)c2n1 | 0.298 µM | 0.162 µM | 0.508 µM | 0.246 µM | 0.821 µM | 0.191 µM | 0.228 µM | 0.55 µM | 0.191 µM | 0.543 µM | 0.354 µM | > 100 µM | 0.175 µM | 0.468 µM | 0.205 µM | 0.57 µM | 0.231 µM | 0.557 µM | 0.0665 µM | 0.444 µM
O=C(C/C(=N/O)C(=O)NC1=C(Cl)C(=O)c2ccccc2C1=O)CC(c1ccccc1)c1c(O)c2ccccc2oc1=O (centres undefined) | > 100 µM |  | 22.2 µM |  | 42.3 µM |  |  | 32.4 µM |  | 14.4 µM |  | > 100 µM |  | 26.5 µM |  | 17.8 µM |  | 44.5 µM |  | 15.2 µM
NCCCC[C@@H]1NC(=O)[C@H]2CCCN2C(=O)[C@H](Cc2ccccc2)CNC(=O)[C@H](Cc2ccccc2)NC1=O | > 37.5 µM | > 37.5 µM | > 37.5 µM | > 37.5 µM | > 37.5 µM | > 37.5 µM | > 37.5 µM | > 37.5 µM | > 37.5 µM | > 37.5 µM | 31.9 µM | > 37.5 µM | > 37.5 µM | > 37.5 µM | > 37.5 µM | > 37.5 µM | > 37.5 µM | > 37.5 µM | > 37.5 µM | > 37.5 µM
CSC1=C(N)C(=O)c2[nH]cc(CO)c2C1=N | 2.3 µM | 0.123 µM | 0.249 µM | 0.26 µM | 1.22 µM | 0.134 µM | 0.211 µM | 0.503 µM | 0.163 µM | 0.382 µM | 0.221 µM | 0.659 µM | 0.236 µM | 0.669 µM | 0.418 µM | 2.2 µM | 0.154 µM | 0.295 µM | 0.499 µM | 0.346 µM
O=C1c2cc3c(cc2[C@@H]2[C@H]1c1ccc([N+](=O)[O-])cc1C(=O)N2CCCBr)OCO3 | < 0.01 µM | 0.0771 µM | 7 µM | 0.0379 µM | 0.501 µM | < 0.037 µM | 2.15 µM | > 100 µM | < 0.0226 µM | 0.656 µM | < 0.01 µM | < 0.01 µM | 0.187 µM | 0.699 µM | 0.0437 µM | 3.95 µM | < 0.01 µM | > 100 µM | < 0.01 µM | 
O=C1C(Nc2ccc(Cl)cc2)=C(I)C(=O)c2ncccc21 | 2.9 µM | 0.989 µM | 2.19 µM | 1.71 µM | 3.32 µM | 0.247 µM | 1.55 µM | 3.03 µM | 0.373 µM | 1.82 µM | 0.301 µM | 2.28 µM | 1.31 µM | 2.7 µM | 1.68 µM | 11 µM | 0.473 µM | 1.74 µM | 1.43 µM | 1.03 µM
C[C@H]1CC[C@@]2(NC1)O[C@H]1C[C@H]3[C@@H]4CC[C@H]5C[C@@H](O)CC[C@]5(C)[C@H]4CC[C@]3(C)[C@H]1[C@@H]2C | > 100 µM | 17.3 µM | 50 µM and > 100 µM |  | > 100 µM | 9.61 µM | 10.7 µM | 23.9 µM and > 100 µM | 20.9 µM | 50 µM and > 100 µM |  | > 100 µM | 7.26 µM | 15.9 µM and > 100 µM | 19 µM | 50 µM and > 100 µM | 14.2 µM | 44.6 µM and > 100 µM |  | 22.2 µM and > 100 µM
COc1cccc(-c2c[nH]c3c(N/N=C/c4ccncc4)ncnc23)c1 | 19.2 µM | 2.65 µM | 11.1 µM | 7.06 µM | 24.1 µM | 1.12 µM | 1.7 µM | 6.15 µM | 1.46 µM | > 25 µM | 0.872 µM | > 24.1 µM | 3.83 µM | > 22.9 µM | 1.41 µM | 4.9 µM | 1.75 µM | > 23.7 µM | 4.96 µM | 6.26 µM
N#C/C(=C\c1ccsc1)c1nc2ccccc2o1 | 42.8 µM | > 100 µM | > 100 µM | 67.5 µM | > 100 µM | 85.1 µM | 98.5 µM | > 100 µM | > 100 µM | > 100 µM | > 100 µM | > 100 µM | 22.4 µM | > 100 µM | > 100 µM | > 100 µM | 46.4 µM | > 100 µM | 14.4 µM | > 100 µM
COc1cc2nc(N3CCCC3)nc(NCc3ccccc3)c2cc1OC | 14 µM | 2.95 µM | 11.3 µM | 6.04 µM | 19.2 µM | 2.27 µM | 2.26 µM | 5.13 µM | 1.79 µM | 4.22 µM | 1.53 µM | 5.3 µM | 2.1 µM | 4.48 µM | 4.52 µM | 17 µM | 1.38 µM | 3.21 µM | 2.36 µM | 5.53 µM
CN1CCN(C(=O)C(C)(C)c2ccc(C(=O)Nc3cn4cc(-c5ccncc5)ccc4n3)cc2)CC1 | 7.11 µM | 0.35 µM | > 100 µM | 0.491 µM | > 100 µM | 0.126 µM | 0.316 µM | 1.62 µM | 0.312 µM | 7.2 µM | 0.135 µM | 4.7 µM | 0.413 µM | > 54.1 µM | 0.175 µM | > 60.3 µM | 0.272 µM | 1.3 µM | 0.366 µM | 0.431 µM
C=C1C(O)C2C(=C(CC)C13CC3)C(=O)C(C)(C)C2OC (centres undefined) | > 100 µM | > 100 µM | > 100 µM | 82.6 µM | > 100 µM | 40.3 µM | > 100 µM | > 100 µM | 59 µM | > 100 µM | 23.5 µM | 68 µM | 87.5 µM | > 100 µM | 60.9 µM | > 100 µM | 81.5 µM | > 100 µM | 48.4 µM | > 100 µM
Cc1cc(NC(=O)NC(=O)c2ccccc2NC(=O)C(C)N)ccc1Oc1ncc(Br)cn1 (centres undefined) | 25.6 µM |  | 36.7 µM |  | 28.6 µM |  |  | 6.58 µM |  | 39.1 µM |  | 45.3 µM |  | 11.8 µM |  | 19.4 µM |  | 26.9 µM |  | 0.111 µM
COc1ccc(C/C(C)=C(/c2ccc(OCCN3CCCCC3)cc2)c2ccc(OC(=O)NCc3ccccc3)cc2)cc1 | 0.575 µM | 0.393 µM | 0.764 µM | 0.37 µM | 0.773 µM | 0.413 µM | 0.46 µM | 0.879 µM | 0.339 µM | 0.706 µM | 0.353 µM | 1.34 µM | 0.44 µM | 0.81 µM | 0.44 µM | 0.826 µM | 0.34 µM | 0.669 µM | 0.258 µM | 0.762 µM
NC(=O)N/N=C1/CCC(O)CC1CC(=O)O (centres undefined) | > 100 µM |  | > 100 µM |  | > 100 µM |  |  | > 100 µM |  | > 100 µM |  | > 100 µM |  | > 100 µM |  | > 100 µM |  | > 100 µM |  | > 100 µM
CC(C)(C)C(=O)OCC1C(=O)OCC1C(=O)N1Cc2cc3ccccc3nc2C1 (centres undefined) | 3.69 µM |  | 7.67 µM |  | 22.4 µM |  |  | 22.1 µM |  | 6.36 µM |  | 3.77 µM |  | 14.4 µM |  | 29.8 µM |  | 7.99 µM |  | 11.8 µM
O=C1/C(=C/c2ccccc2)CN(C(=O)CCN2CCOCC2)C/C1=C\c1ccccc1 | 22.2 µM |  | 8.38 µM |  | 26.7 µM |  |  | 6.96 µM |  | 4.96 µM |  | 4.04 µM |  | 9.78 µM |  | 2.99 µM |  | 19.2 µM |  | 11.5 µM
Cc1ccccc1OCC(O)CN1CCN(c2ccc(Cl)cc2)CC1 (centres undefined) | 22 µM | 16 µM | 30.2 µM | 13.7 µM | 30.9 µM | 16.6 µM | 18.7 µM | 35 µM | 19.2 µM | 40.2 µM | 14.3 µM | 40.1 µM | 14.4 µM | 29.8 µM | 17.8 µM | 36.9 µM | 6.75 µM | 20.8 µM | 10 µM | 31.7 µM
